Entries after “also recorded” stand apart in the source; their conditions may differ.
Assays:
TREM-1 [1] = experiment: Cytokine expression and production by stimulated neutrophils and monocytes; format: cell-based, human
Description: (E) Cytokines expression: TNF-α mRNA levels in neutrophils stimulated for 6 hours.
(F) Cytokines production: ELISA of TNF-α in neutrophils treated for 2, 6 and 24 hours
(F) Cytokines expression: TNF-α mRNA levels in neutrophils stimulated for 6 hours.
(G-H) Cytokines production: ELISA of TNF-α, in neutrophils treated for 2, 6 and 24 hours.
(§1) Depending on the experiment, cells were stimulated in complete medium supplemented with 100 ng/mL of E. Coli LPS (0111:B4, Sigma-Aldrich), anti-TREM-1 mAb (R&Dsystems) and TLT-1-peptides at different times and concentrations on 96-wells plates (Greiner Bio One). Supernatants were collected for cytokine measurements and cells subjected to flow cytometry or lysed for protein phosphorylation analyses and NFkB activity measurement.
Cytokines in supernatants of stimulated human cells or mouse plasma were measured by ELISA (human and mouse Quantikine ELISA kits, R&Dsystems) and cytokines panel assays (Proteome Profiler Human Cytokine Array Kit, Panel A and Proteome Profiler Mouse Cytokine Array Kit, Panel A, R&Dsystems) according to manufacturers' recommendations.

male Balb/c mice = experiment: LPS-induced endotoxemia in mice; format: in vivo, mouse
Description: Male Balb/c mice (20-23 g) were randomly grouped (15 mice per group) and treated with an LD50 of LPS. LR17 (100 μg or 250 μg in 0.2 mL NaCl 0.9%), scrambled-LR17 (100 μg in 0.2 mL NaCl 0.9%), or 0.2 mL NaCl 0.9% was administered 60 min before or 60 minutes after LPS. 4-6 animals per group were sacrificed upon penthotal overdose at 2 and 4 hours after LPS injection and blood was sampled through cardiac puncture. Results are mean±SD. p values are *p<0.05, **p<0.01, ***p<0.001 compared with control animals.
After approval by the local ethical committee, male Balb/c mice (4-6 weeks) were randomly grouped and treated with LPS i.p. in combination with LR17 (in 250 μL normal saline) or LR17-scrambled 1 hour before or after LPS challenge. The viability of mice was examined every hour, or animals were killed at regular intervals. Serum samples were collected by cardiac puncture and assayed for cytokines and sTREM-1 levels by ELISA (R&Dsystems).

TREM-1 [2] = experiment: CARD9-MALT1-BCL10 complex formation (immunoprecipitation) in neutrophils; format: cell-based, human; conditions: peptide 30 μg/mL
Description: (B) CARD9-MALT1-BCL10 complex formation: Immunoblot of MALT-1 after immunoprecipitation with anti-BCL10 mAb of lysates of neutrophils stimulated for 20 minutes.
(B) […] complex formation: Immunoblot of MALT-1 after immunoprecipitation with anti-BCL10 mAb of lysates of neutrophils stimulated for 20 minutes.
Cells were lysed with CytoBuster Protein Extraction Reagent (Novagen). Samples were normalized by total protein concentration and lysates were pre-cleared before performing Immunoprecipitation. Pre-cleared lysates were then incubated overnight at 4° C. with rabbit-anti-Bcl10 mAb (Cell Signaling) or rabbit-anti-CARD9 (Antibodies Online). Thereafter, anti-rabbit-Ig beads (eBioscience) were added for 1 hour at room temperature. Beads were then washed 3 times, denatured in Laemli buffer 5 minutes at 95° C. and centrifuged at 16,000 g for 1 min.

[3] = test system: TREM-1 ligand binding to immobilized TREM-1; experiment: Surface plasmon resonance, LPS-stimulated neutrophils supernatants on rsTREM-1-coated sensor chip; parameters: species or system human; conditions: FIG. 1D
Description: (C-D) Surface plasmon resonance assays of LPS-stimulated neutrophils supernatants to a rsTREM-1-coated sensorship in absence (C) or presence (D) of LR17.
Detection of TREM-1-ligand on LPS-stimulated neutrophils supernatants was assessed by binding to a recombinant soluble form of TREM-1 (rsTREM-1) coated on a CM5 sensor chip with the BIAcore X instrument at 25° C. with a flow rate of […]. Binding specificity was verified through competition with the soluble rsTREM-1. Inhibition of TREM-1-ligand binding by LR17 was assessed.

TREM-1 ligand (agonist) = experiment: Immunoblot revealed by mouse anti-TREM-1 mAb (TREM-1 agonist); format: binding; conditions: FIG. 1A
Excerpt: To determine whether sTLT-1 may specifically bind to the TREM-1 ligand and thus interfere with the TREM-1/TREM-1 ligand interaction, we used a specific TREM-1 agonist known to bind and activate TREM-1, mimicking TREM-1 engagement by its ligand.

TREM-1 [4] = experiment: Protein phosphorylation analysis in stimulated neutrophils; format: cell-based, human
Description: For these experiments, isolated human neutrophils were stimulated with TREM-1 agonist (αTREM-1, 5 μg/mL) with or without LR17 (30 μg/mL) or control LR17-scrambled peptide (30 μg/mL) at indicated times. Data are representative of at least 5 different experiments. Results are mean±SD. p values are ***p<0.001 **p<0.01 *p<0.05 [αTREM-1+LR17] versus [αTREM-1].
(A) Activation of TREM-1 phosphorylation pathway: Western Blot of lysates of neutrophils stimulated for 1, 3, 10, 30 and 60 minutes, analysed with antibody to phospho (p)-p38 and (p)-ERK1/2.
For these experiments, isolated human neutrophils or monocytes were stimulated with LPS (0.1 μg/mL) and TREM-1 agonist (αTREM-1, 5 μg/mL) with or without LR17 (30 μg/mL) or control LR17-scrambled peptide (30 μg/mL), at indicated times. Data are representative of at least 5 different experiments. Results are mean±SD. p values are ***p<0.001 **p<0.01 *p<0.05 [LPS/LR17] versus [LPS] or [LPS+αTREM-1/LR17] versus [LPS+αTREM-1].
(A) Western Blot of lysates of neutrophils stimulated for 1, 3, 10, 30 and 60 minutes, analysed with antibody to phosphor (p)-p38 and (p)-ERK1/2.
as §1
Stimulated PMNs were lysed at 1, 3, 10, 30 and 60 minutes with PhosphoSafe Extraction Reagent (Novagen) and centrifuged for 5 minutes at 16,000 g at 4° C. to collect the supernatant. Protein concentration was determined according to Bradford's method (Pierce). […] Alternatively, PMNs were analyzed after 20 minutes of stimulation for a panel of multiple phosphorylated proteins by immunoblot (Human Phospho-Kinase Array, R&Dsystems). Acquisition and quantitative signals density analyses were done by LAS-4000 imager and Multi-Gauge software (Fujifilm).

**Q.** How did the “production of TNF-α, IL-6, IL-8, GRO-α, IL-1β, IL-16, MCP-1, MIP-1β and RANTES (broad cytokine arrays)” value (TREM-1 [1]) turn out when “LQEEDAGEYGCMVDGAR (listed as Homo sapiens) [LR17]” was run?
**A.** The value was “decreased production”.

**Q.** What about the “LPS associated TNF-α secretion by neutrophils and monocytes, gene and protein level” value (TREM-1 [1]; LPS) of the same sequence?
**A.** The value was “dose-dependently reduced”.

**Q.** And the “synergy of αTREM-1 with LPS for cytokine production” value (TREM-1 [1]; LPS + αTREM-1)?
**A.** Its value is “blocked; also recorded: abrogated”.

**Q.** And the “effects in human monocytes and upon TLR2 (Pam3SK4) stimulation” value (TREM-1 [1]; not shown)?
**A.** The value was “confirmed to occur”.

**Q.** What about the “cytokine production by activated neutrophils, gene and protein levels (TNF-α, IL-6, IL-8)” value (TREM-1 [1]; αTREM-1 5 μg/mL, peptide 30 μg/mL) of the same sequence?
**A.** The value was “able to decrease cytokine production”.

**Q.** And the “αTREM-1 induced TNF-α production by neutrophils” value (TREM-1 [1]; αTREM-1 alone)?
**A.** Its value is “abrogated”.

**Q.** What about the “serum levels of TNF-α, IL-6, IL-10 and sTREM-1” value (male Balb/c mice; 2 and 4 h, pre- and post-treatment, versus controls) of the same sequence?
**A.** Its value is “reduced”.

**Q.** What about the survival curve (male Balb/c mice; Log Rank test, p=0.0032) of the same sequence?
**A.** Its survival curve is “confers a survival advantage”.

**Q.** What about the “survival, delayed treatment” value (male Balb/c mice; injected 1 hour after LPS) of the same sequence?
**A.** Its value is “significant protection”.

**Q.** What about the “comparison of doses (250 μg vs 100 μg) or injection times” value (male Balb/c mice; mouse, in vivo) of the same sequence?
**A.** Its value is “no differences between doses or injection times; also recorded: did not confer advantage”.

**Q.** What about the late death (male Balb/c mice; over 10 days) of the same sequence?
**A.** The late death was “No late death occurred”.

**Q.** What about the survival (male Balb/c mice; single i.p. dose 60 min before LPS (LD50, 25 mg/kg)) of the same sequence?
**A.** Its survival is “All LR17-treated animals survived”.

**Q.** What about the CARD9-MALT1-BCL10 complex formation (TREM-1 [2]; LPS 0.1 μg/mL with or without αTREM-1) of the same sequence?
**A.** The CARD9-MALT1-BCL10 complex formation was “decreased”.

**Q.** And the CARD9-MALT1-BCL10 complex formation (TREM-1 [2]; αTREM-1 5 μg/mL, 20 minutes)?
**A.** The CARD9-MALT1-BCL10 complex formation was “reversed”.

**Q.** What about the “binding of the TREM-1 ligand to immobilized TREM-1” value [3] of the same sequence?
**A.** Its value is “able to block the binding”.

**Q.** What about the “binding to the TREM-1 ligand (TREM-1 agonist, anti-TREM-1 mAb)” value (TREM-1 ligand (agonist)) of the same sequence?
**A.** Its value is “able to bind the TREM-1 ligand”.

**Q.** What about the “phosphorylation of p38 and ERK1/2” value (TREM-1 [4]; LPS 0.1 μg/mL with or without αTREM-1, peptide 30 μg/mL) of the same sequence?
**A.** Its value is “decreased”.

**Q.** And the “phosphorylation of mTOR, Lyn, AKT, MSK1/2, MEK 1/2, GSK 3α/β, RSK, and p53 (phosphoprotein arrays)” value (TREM-1 [4]; TREM-1 signalling, data not shown)?
**A.** Its value is “reduced”.

**Q.** And the “p38 MAPK and ERK 1/2 phosphorylation” value (TREM-1 [4]; αTREM-1 5 μg/mL, peptide 30 μg/mL, 1-60 minutes)?
**A.** Its value is “partly abrogated”.
